Data from PMC10112521, “High-throughput AR dimerization assay identifies androgen disrupting chemicals and metabolites” (Frontiers in Toxicology, 2023).
Counter-ions that a name gives are not always drawn. Like-named read-outs stand apart in the source and are kept apart here.

Assays:
AR2 cells (HepG2-AR2) = test: Alamar Blue (resazurin) post hoc cell viability / cytotoxicity assay in AR2 cells; details: spid Viability, sheet antagonist_fits; for hill_tp (Hill model top): 0 where win_model is Constant
Experimental: For antagonist mode and cytotoxicity data, well-level normalized response (resp) was calculated as: resp=100 * RLU−bval/pval−bval where pval is the median RLU value of the MEC positive control wells (minimum four wells).

AR = system: AR; parameters: method as in Kleinstreuer et al., 2017; details: 2017, cited from earlier work; for Agonist reference: AR agonist reference class ref Kleinstreuer et al.; for Antagonist reference: AR antagonist reference class ref Kleinstreuer et al.
human AR [1] = target: T1, human AR (Homo sapiens, UniProt P10275); test: AR2 assay, antagonist mode: disruption of R1881 (10 nM)-induced AR homodimerization in HepG2-AR2 cells; format: cell-based
T1 sequence (P10275 1-920) 1: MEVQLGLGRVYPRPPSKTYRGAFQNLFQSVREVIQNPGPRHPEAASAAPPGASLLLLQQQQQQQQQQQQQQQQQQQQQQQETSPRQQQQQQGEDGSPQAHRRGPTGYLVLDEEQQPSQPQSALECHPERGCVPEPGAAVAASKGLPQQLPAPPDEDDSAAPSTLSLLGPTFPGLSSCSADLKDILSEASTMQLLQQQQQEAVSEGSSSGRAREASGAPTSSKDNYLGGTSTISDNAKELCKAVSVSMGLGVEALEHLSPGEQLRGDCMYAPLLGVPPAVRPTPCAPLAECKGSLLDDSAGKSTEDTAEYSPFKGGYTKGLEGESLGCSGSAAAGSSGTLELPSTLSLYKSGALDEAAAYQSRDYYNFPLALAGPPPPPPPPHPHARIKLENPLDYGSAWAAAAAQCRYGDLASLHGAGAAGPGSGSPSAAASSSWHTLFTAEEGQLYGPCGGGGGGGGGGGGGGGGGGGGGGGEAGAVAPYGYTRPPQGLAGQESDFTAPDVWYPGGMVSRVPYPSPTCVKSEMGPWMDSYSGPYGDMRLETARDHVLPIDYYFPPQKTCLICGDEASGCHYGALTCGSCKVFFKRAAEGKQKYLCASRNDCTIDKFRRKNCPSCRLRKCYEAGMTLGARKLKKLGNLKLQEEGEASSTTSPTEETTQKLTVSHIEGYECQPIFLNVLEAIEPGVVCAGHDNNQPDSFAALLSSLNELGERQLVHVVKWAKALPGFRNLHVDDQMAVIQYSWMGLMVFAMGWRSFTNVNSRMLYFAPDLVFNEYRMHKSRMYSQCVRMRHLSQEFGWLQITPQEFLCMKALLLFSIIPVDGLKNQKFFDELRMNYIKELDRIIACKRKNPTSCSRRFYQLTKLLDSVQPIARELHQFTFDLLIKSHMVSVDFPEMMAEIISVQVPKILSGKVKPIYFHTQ
T1 sequence (P10275 1-920) 2: T1 sequence (P10275 1-920) 1

[2] = system: full-length human AR and the receptor interacting domain (RID) of SRC1; parameters: method as in U.S. EPA, 2002b; details: cited from earlier work
human AR [3] = target: T1, human AR; test: AR2 assay, agonist mode: ligand-dependent AR homodimerization (NanoBiT luciferase complementation) in stable HepG2-AR2 cells; format: cell-based;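 as to hill tp: Log2 fold change of luminescence over DMSO vehicle wells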;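 as to max med: Log2 fold change of luminescence over DMSO vehicle wells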
human AR [4] = target: T1, human AR; test: cell-based; parameters: species or system AR2 cells (HepG2-AR2); NanoLuc complementation AR homodimerization, antagonist mode, loss of agonist-induced luminescence, AC50 by Hill fit; details: hill_ga
[5] = spid AR_antagonist, sheet antagonist_fits
[6] = spid AR_antagonist, sheet antagonist_fits, 0 where win_model is Constant
[7] = activity call, 8 h, single protocol detects agonists and antagonists, invitroDBv3.4 ref U.S. EPA, 2002b
[8] = activity call, 16 h, single protocol detects agonists and antagonists, invitroDBv3.4 ref U.S. EPA, 2002b
[9] = sheet agonist_fits, Hill model top (efficacy), 0 given where win_model is Constant
[10] = sheet agonist_fits, maximum median response
[11] = sheet agonist_fits, winning concentration-response model (Constant, Hill, Gain-Loss)

## C#C[C@]1(O)CC[C@H]2[C@@H]3CCC4=CC(=O)CC[C@@H]4[C@H]3CC[C@@]21C [Norethindrone]
AR2 cells (HepG2-AR2)
  max_med (maximum median response): 2.971
  hill_tp (Hill model top): 0
AR
  Agonist reference: Strong
AR; Supplementary Table S1
  Agonist reference: Strong

## CC/C(=C(\c1ccccc1)c1ccc(OCCN(C)C)cc1)c1ccccc1 [Tamoxifen]
AR2 cells (HepG2-AR2)
  max_med (maximum median response): 41.7162
  hill_tp (Hill model top): 97.2082
AR
  Agonist reference: Inactive

## CC(C)(O)C(=O)Nc1ccc([N+](=O)[O-])c(C(F)(F)F)c1 [Hydroxyflutamide]
AR2 cells (HepG2-AR2)
  max_med (maximum median response): 16.5535
  hill_tp (Hill model top): 15.0961
Human AR [1]; 128-chemical evaluation, 18 h, active = maximal median response >3*bmad and AC50 at least 0.5 log units below cytotoxicity AC50
  activity call in antagonist mode: tested inactive
Human AR [1]; activity call, antagonist mode, 18 h
  AR2 antagonist: 0
Human AR [1]; read-out: antagonist response / maximum efficacy (% inhibition)
  Emax: > 90%
Human AR [1]; [5]
  max_med (maximum median response): 26.302
  win_model (winning concentration-response model): Hill
Human AR [1]; [6]
  hill_gw (Hill model slope): 8
  hill_tp (Hill model top): 19.7734
AR
  Antagonist reference: Strong
AR; Supplementary Table S1
  Antagonist reference: Strong
[2]; [7]
  OT 8 hr: 1
[2]; [8]
  OT 16 hr: 1
Human AR [3]; 128-chemical evaluation, 18 h, active = maximal median response >5*bmad
  activity call in agonist mode: tested active
Human AR [3]; sheet agonist_fits, Hill model gain slope (Hill coefficient), 0 given where win_model is Constant
  hill_gw: 0.8082
Human AR [3]; [9]
  hill_tp: 5.723
Human AR [3]; [10]
  max_med: 5.832
Human AR [3]; [11]
  win_model: Hill

## O=c1c(-c2ccc(O)cc2)coc2cc(O)cc(O)c12 [Genistein]
AR2 cells (HepG2-AR2)
  max_med (maximum median response): 23.3224
  hill_tp (Hill model top): 24.3043
Human AR [1]
  hill_tp (Hill model top): 100.659
  max_med (maximum median response): 101.398
Human AR [1]; [5]
  win_model (winning concentration-response model): Hill
Human AR [1]; [6]
  hill_gw (Hill model slope): 2.066
Human AR [4]; spid=Bgal, antagonist mode, 10 nM agonist stimulus, 18 h, no CYP expressed
  AC50: 9.34 µM
Human AR [4]; spid=No_RNA, antagonist mode, 10 nM agonist stimulus, 18 h, no CYP expressed
  AC50: 9.32 µM
Human AR [3]; [9]
  hill_tp: 0
Human AR [3]; [10]
  max_med: 0.108
Human AR [3]; [11]
  win_model: Constant

## C#C[C@]1(O)CC[C@H]2[C@@H]3CCC4=CC(=O)CC[C@@H]4[C@H]3CC[C@@]21CC [Levonorgestrel]
AR2 cells (HepG2-AR2)
  max_med (maximum median response): 19.7477
  hill_tp (Hill model top): 15.1748
AR
  Agonist reference: Strong
AR; Supplementary Table S1
  Agonist reference: Strong

## CCCCOC(=O)c1ccccc1C(=O)OCc1ccccc1 [Butylbenzylphthalate]
AR2 cells (HepG2-AR2)
  max_med (maximum median response): 15.4413
  hill_tp (Hill model top): 12.3573
AR; Supplementary Table S1
  Agonist reference: Inactive

## C[C@]12CCC(=O)C=C1CC[C@@H]1[C@@H]2CC[C@]2(C)C(=O)CC[C@@H]12 [4-Androstene-3,17-dione]
AR2 cells (HepG2-AR2)
  max_med (maximum median response): 19.1138
  hill_tp (Hill model top): 19.333
AR
  Agonist reference: Moderate
  Antagonist reference: Inactive
AR; Supplementary Table S1
  Agonist reference: Moderate
[2]; [7]
  OT 8 hr: 1
[2]; [8]
  OT 16 hr: 1

## CNC(=O)Oc1cccc2c1OC(C)(C)C2 [Carbofuran]
AR2 cells (HepG2-AR2)
  max_med (maximum median response): 23.3178
  hill_tp (Hill model top): 15.7111
Human AR [1]; [5]
  max_med (maximum median response): 28.4656
  win_model (winning concentration-response model): Hill
Human AR [1]; [6]
  hill_gw (Hill model slope): 1.516
  hill_tp (Hill model top): 33.2623
Human AR [4]
  AC50: 44.2 µM
Human AR [3]; [9]
  hill_tp: 0
Human AR [3]; [10]
  max_med: 0.1027
Human AR [3]; [11]
  win_model: Constant

## CCN(CC)CCOc1ccc(C(=C(Cl)c2ccccc2)c2ccccc2)cc1 [Clomiphene citrate]
AR2 cells (HepG2-AR2)
  max_med (maximum median response): 99.676
  hill_tp (Hill model top): 104.376
Human AR [1]; [5]
  max_med (maximum median response): 103.883
  win_model (winning concentration-response model): Hill
Human AR [1]; [6]
  hill_gw (Hill model slope): 2.036
  hill_tp (Hill model top): 106.625
Human AR [3]; [10]
  max_med: -0.008157

## CC(C)(C)NC(=O)[C@H]1CC[C@H]2[C@@H]3CC[C@H]4NC(=O)C=C[C@]4(C)[C@H]3CC[C@]12C [Finasteride]
AR2 cells (HepG2-AR2)
  max_med (maximum median response): 14.3947
  hill_tp (Hill model top): 0
AR
  Agonist reference: Inactive

## CC1(C)NC(=O)N(c2ccc([N+](=O)[O-])c(C(F)(F)F)c2)C1=O [Nilutamide]
AR2 cells (HepG2-AR2)
  max_med (maximum median response): 8.678
  hill_tp (Hill model top): 5.9263
AR; Supplementary Table S1
  Agonist reference: Inactive
  Antagonist reference: Moderate

## CCCN(CCOc1c(Cl)cc(Cl)cc1Cl)C(=O)n1ccnc1 [Prochloraz]
AR2 cells (HepG2-AR2)
  max_med (maximum median response): 76.2192
  hill_tp (Hill model top): 81.7308
AR
  Agonist reference: Inactive
  Antagonist reference: Moderate
AR; Supplementary Table S1
  Antagonist reference: Moderate

## CC(=O)S[C@@H]1CC2=CC(=O)CC[C@]2(C)[C@H]2CC[C@@]3(C)[C@@H](CC[C@@]34CCC(=O)O4)[C@H]12 [Spironolactone]
AR2 cells (HepG2-AR2)
  max_med (maximum median response): 26.4305
AR
  Antagonist reference: Strong
AR; Supplementary Table S1
  Antagonist reference: Strong

## COc1ccc(C(c2ccc(OC)cc2)C(Cl)(Cl)Cl)cc1 [Methoxychlor]
AR2 cells (HepG2-AR2)
  max_med (maximum median response): 4.672
  hill_tp (Hill model top): 0
AR
  Antagonist reference: Weak
AR; Supplementary Table S1
  Antagonist reference: Weak

## CNC(=O)ON=C(C)SC [Methomyl]
AR2 cells (HepG2-AR2)
  max_med (maximum median response): 19.3855
  hill_tp (Hill model top): 17.5917
AR
  Antagonist reference: Inactive

## CCOC(=O)CC(SP(=S)(OC)OC)C(=O)OCC (stereo not shown) [Malathion]
AR2 cells (HepG2-AR2)
  max_med (maximum median response): 9.605
  hill_tp (Hill model top): 0
Human AR [1]; [5]
  max_med (maximum median response): 33.4262
  win_model (winning concentration-response model): Hill
Human AR [1]; [6]
  hill_gw (Hill model slope): 0.997
  hill_tp (Hill model top): 41.649
Human AR [3]; [9]
  hill_tp: 0
Human AR [3]; [10]
  max_med: 0.05987
Human AR [3]; [11]
  win_model: Constant

## COP(=S)(OC)Oc1ccc([N+](=O)[O-])c(C)c1 [Fenitrothion]
AR2 cells (HepG2-AR2)
  max_med (maximum median response): 18.684
  hill_tp (Hill model top): 19.2014
AR
  Antagonist reference: Strong
AR; Supplementary Table S1
  Antagonist reference: Strong

## C[C@]12C=CC3=C4CCC(=O)C=C4CC[C@H]3[C@@H]1CC[C@@H]2O [17beta-Trenbolone]
AR2 cells (HepG2-AR2)
  max_med (maximum median response): 21.7453
  hill_tp (Hill model top): 17.3642
Human AR [1]
  hill_gw (Hill model slope): 6.214
  hill_tp (Hill model top): 20.2687
  max_med (maximum median response): 20.7317
  win_model (winning concentration-response model): Gain-Loss
AR
  Agonist reference: Strong
AR; Supplementary Table S1
  Agonist reference: Strong
[2]
  OT 8 hr: 1
  OT 16 hr: 1
Human AR [3]
  AR2 agonist: 1
  activity call in agonist mode: tested active
  hill_gw: 0.7579
  hill_tp: 6.165
  max_med: 6.198
  win_model: Hill

## CC(C)C(=O)Nc1ccc([N+](=O)[O-])c(C(F)(F)F)c1 [Flutamide]
AR2 cells (HepG2-AR2)
  max_med (maximum median response): 35.756
  hill_tp (Hill model top): 43.7281
AR
  Agonist reference: Inactive
  Antagonist reference: Moderate
AR; Supplementary Table S1
  Antagonist reference: Moderate

## CNC(=O)O/N=C(\SC)C(=O)N(C)C [Oxamyl]
AR2 cells (HepG2-AR2)
  max_med (maximum median response): 14.6316
  hill_tp (Hill model top): 13.892
Human AR [1]; [5]
  max_med (maximum median response): 4.35
  win_model (winning concentration-response model): Constant
Human AR [1]; [6]
  hill_gw (Hill model slope): 0
  hill_tp (Hill model top): 0
Human AR [3]; [9]
  hill_tp: 0
Human AR [3]; [10]
  max_med: 0.09886
Human AR [3]; [11]
  win_model: Constant

## CON(C)C(=O)Nc1ccc(Cl)c(Cl)c1 [Linuron]
AR2 cells (HepG2-AR2)
  max_med (maximum median response): 8.62
  hill_tp (Hill model top): 20.739
AR
  Antagonist reference: Moderate
AR; Supplementary Table S1
  Antagonist reference: Moderate
